The values below come from US20200291355A1, “ENGINEERED ERYTHROID CELLS INCLUDING LOADABLE ANTIGEN-PRESENTING POLYPEPTIDES AND METHODS OF USE” (Rubius Therapeutics, Inc., priority 2019, published 2020).

The subject of the assay is wt HLA-A2 or ds HLA-A2 antigen-presenting polypeptide (HLA*02:01). In words: Binding kinetics of TAMRA-labeled HPV E7 antigenic polypeptides onto engineered enucleated erythroid cells (flow cytometry). On the set-up: species or system human. The following applies: 10 ng/mL, about 90 minutes, 4° C., RT and 37° C. How it is done: To examine the antigenic polypeptide loading kinetics of loadable antigen-presenting polypeptides, the following experiment was performed.

On to YMLDLQPKT [HPV E7-E18K], for which the “Loading rate of fluorescent peptide compared with HPV E7-GGK” value runs as follows: (onto cells including ds HLA-A2) “more rapidly”; (onto cells including wt HLA-A2) “more rapidly”.
